Data on 14 molecules can be found in US11578069B2, “Compounds for inhibition of α4 β7 integrin” (Gilead Sciences, Inc., priority 2019, dated 2023).

In one test the target is T1, α4β7 integrin (Homo sapiens, UniProt P13612+P26010).
T1 construct: monitoring the capture of α4β7 integrin expressing cells; endogenous in cells; host or cells: RPMI8866
T1 sequence (P13612 34-1032): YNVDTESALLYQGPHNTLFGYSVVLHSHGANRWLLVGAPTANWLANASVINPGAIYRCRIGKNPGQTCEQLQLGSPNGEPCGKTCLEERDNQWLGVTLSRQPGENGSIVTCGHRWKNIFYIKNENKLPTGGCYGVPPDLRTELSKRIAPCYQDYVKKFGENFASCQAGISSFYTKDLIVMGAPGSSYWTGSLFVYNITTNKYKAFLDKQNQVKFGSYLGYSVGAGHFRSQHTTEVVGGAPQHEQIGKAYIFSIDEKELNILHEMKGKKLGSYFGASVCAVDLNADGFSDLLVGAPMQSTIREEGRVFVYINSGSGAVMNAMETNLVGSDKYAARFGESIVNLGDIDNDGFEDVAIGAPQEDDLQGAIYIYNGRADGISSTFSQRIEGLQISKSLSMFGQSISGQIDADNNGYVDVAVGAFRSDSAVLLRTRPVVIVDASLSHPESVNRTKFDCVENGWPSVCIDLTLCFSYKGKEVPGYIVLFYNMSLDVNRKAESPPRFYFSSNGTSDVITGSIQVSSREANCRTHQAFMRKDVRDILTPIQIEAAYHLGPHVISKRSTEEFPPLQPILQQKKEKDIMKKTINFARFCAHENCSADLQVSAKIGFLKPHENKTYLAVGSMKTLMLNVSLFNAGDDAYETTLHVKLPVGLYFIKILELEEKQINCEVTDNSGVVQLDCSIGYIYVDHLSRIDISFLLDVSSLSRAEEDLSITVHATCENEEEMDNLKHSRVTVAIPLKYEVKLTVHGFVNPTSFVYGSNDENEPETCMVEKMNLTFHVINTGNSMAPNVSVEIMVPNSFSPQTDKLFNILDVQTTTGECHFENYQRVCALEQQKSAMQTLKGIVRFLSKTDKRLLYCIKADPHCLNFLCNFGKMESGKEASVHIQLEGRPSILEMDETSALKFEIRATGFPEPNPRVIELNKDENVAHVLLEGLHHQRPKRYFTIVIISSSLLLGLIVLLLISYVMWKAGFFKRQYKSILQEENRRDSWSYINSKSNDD
T1 sequence (P26010 20-798): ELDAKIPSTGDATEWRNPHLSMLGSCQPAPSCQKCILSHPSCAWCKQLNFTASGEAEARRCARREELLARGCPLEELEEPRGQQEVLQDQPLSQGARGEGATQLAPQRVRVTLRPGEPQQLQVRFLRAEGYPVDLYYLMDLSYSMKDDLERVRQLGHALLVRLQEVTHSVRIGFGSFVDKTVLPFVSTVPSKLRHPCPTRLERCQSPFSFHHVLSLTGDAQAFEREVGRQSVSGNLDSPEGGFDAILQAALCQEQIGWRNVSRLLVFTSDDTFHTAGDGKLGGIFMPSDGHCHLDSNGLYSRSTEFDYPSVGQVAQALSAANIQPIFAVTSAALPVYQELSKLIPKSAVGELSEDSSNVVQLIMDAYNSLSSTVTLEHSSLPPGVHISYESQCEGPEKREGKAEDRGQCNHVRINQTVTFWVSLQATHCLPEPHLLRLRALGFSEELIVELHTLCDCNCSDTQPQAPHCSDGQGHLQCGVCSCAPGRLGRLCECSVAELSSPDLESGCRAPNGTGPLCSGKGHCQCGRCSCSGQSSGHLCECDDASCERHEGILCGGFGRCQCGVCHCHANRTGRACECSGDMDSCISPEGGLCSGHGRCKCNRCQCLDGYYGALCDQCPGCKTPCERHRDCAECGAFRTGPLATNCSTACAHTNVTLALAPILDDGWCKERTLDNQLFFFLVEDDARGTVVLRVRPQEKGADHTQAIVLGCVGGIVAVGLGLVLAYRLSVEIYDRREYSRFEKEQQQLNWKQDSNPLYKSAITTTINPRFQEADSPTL
The test can be described thus: α4β7 Integrin Cell Capture Assay. In kind it is cell-based. As to conditions: capture of α4β7 integrin expressing RPM18866 cells on MadCAM-1 extracellular domain-coated plate. The method, then: The potency of inhibitors in preventing α4β7 integrin interaction with MadCAM-1 was measured by monitoring the capture of α4β7 integrin expressing cells on a recombinant MadCAM-1 extracellular domain-coated plate.
384-well plates (Corning 3702) were coated with MadCAM-1 extracellular domain by dispensing 20 μL of MAdCAM-1 at 1.0 μg/mL per well and incubating overnight at 4° C. The plates were then washed with PBS and blocked with 3% BSA for 2 hours before being washed again.
(§1) RPM18866 cells were spun down and re-suspended in assay medium (DMEM+0.5% FBS+0.5 mM MnCl2) at a density of 0.5×10^6 cells/mL. The cells were then dispensed (60 μL/well) to a 384-well plate (Greiner 781280) that was previously spotted with 60 nL of test compound per well. The plates were incubated at 37° C. for 1 hour. 50 μL of cells were transferred to the blocked, MadCAM-1-coated plates and incubated for 30 minutes at 37° C. 10 μL of 12% glutaraldehyde containing Hoechst 33342 (0.06 mg/mL) was added to the cells (2% glutaraldehyde and 0.01 mg/mL final concentrations). The plates were incubated for 90 minutes at room temperature. The plates were then washed 3 times with 70 μL of PBS per well and imaged on a Cellomics ArrayScan instrument. The cells that were bound to the plate were counted and plotted against the compound concentration to determine the EC50 of the test compounds.

The target in the next test is T2, α4β1 integrin (Homo sapiens, UniProt P05556+P13612).
T2 construct: monitoring the capture of α4β1 expressing cells; endogenous in cells; host or cells: Jurkat
The experiment in a line: α4β1 Cell Capture Assay. In kind it is cell-based. As to conditions: capture of α4β1 expressing Jurkat cells on VCAM-1 extracellular domain-coated plate. As for the experimental part:
The potency of inhibitors in preventing α4β1 integrin interaction with VCAM-1 was measured by monitoring the capture of α4β1 expressing cells to a recombinant VCAM-1 extracellular domain-coated plate.
384-well plates (Corning 3702) were coated with VCAM-1 extracellular domain by dispensing 20 μL of VCAM-1 at 0.5 μg/ml per well and incubating overnight at 4° C. The plates were then washed with PBS and blocked with 3% BSA for 2 hours before being washed again.
as §1, with “Jurkat cells” for “RPM18866 cells”, “0.5×10^6 cells/ml.” for “0.5×10^6 cells/mL.”, “blocked, VCAM-1-coated” for “blocked, MadCAM-1-coated”, “10 μl” for “10 μL”, “0.01 mg/ml Hoechst 33342” for “0.01 mg/mL”

pEC50: −log10 of the molar value.

T2 sequence (P05556 21-798, one chain of several): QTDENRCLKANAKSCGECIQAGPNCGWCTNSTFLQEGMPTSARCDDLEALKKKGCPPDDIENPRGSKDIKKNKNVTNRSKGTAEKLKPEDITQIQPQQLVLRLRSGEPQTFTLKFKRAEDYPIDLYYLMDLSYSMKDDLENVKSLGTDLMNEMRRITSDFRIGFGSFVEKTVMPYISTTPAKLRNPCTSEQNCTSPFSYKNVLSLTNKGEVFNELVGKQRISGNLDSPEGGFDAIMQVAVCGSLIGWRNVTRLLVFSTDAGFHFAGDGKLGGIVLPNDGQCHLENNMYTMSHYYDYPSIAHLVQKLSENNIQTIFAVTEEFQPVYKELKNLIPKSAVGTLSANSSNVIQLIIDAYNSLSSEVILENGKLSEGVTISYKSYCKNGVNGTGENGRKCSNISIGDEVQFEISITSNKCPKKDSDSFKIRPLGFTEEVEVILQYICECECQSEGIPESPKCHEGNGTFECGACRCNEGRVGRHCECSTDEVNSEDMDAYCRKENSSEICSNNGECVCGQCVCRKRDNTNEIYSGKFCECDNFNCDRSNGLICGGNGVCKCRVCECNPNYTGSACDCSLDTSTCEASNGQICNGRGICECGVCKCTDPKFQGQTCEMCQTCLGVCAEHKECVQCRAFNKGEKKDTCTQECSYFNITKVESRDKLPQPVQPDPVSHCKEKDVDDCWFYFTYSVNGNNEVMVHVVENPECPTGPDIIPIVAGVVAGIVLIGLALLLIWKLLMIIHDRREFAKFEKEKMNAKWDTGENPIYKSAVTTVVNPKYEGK

By pEC50 is commonly meant the negative decadic logarithm of the EC50, by convention in mol/L. With `CC[C@@H](Nc1cc(F)c(C(=O)N[C@@H](Cc2ccc(-n3c(=O)cc(C)n(C)c3=O)nc2)C(=O)O)c(F)c1)C(F)(F)F` [Example 43], the negative logarithm of the EC50 (pEC50) on α4β7 integrin (Table 2) is 7.80; at α4β1 integrin (Table 2), 6.18.

With `Cn1c(=O)n(-c2ccc(C[C@H](NC(=O)c3c(F)cc(N4CCOC[C@@H]4C(F)(F)F)cc3F)C(=O)O)cn2)c(=O)c2ccncc21` [Example 13, (S)-2-(2,6-difluoro-4-((R)-3-(trifluoromethyl)morpholino)benzamido)-3-(6-(1-methyl-2,4-dioxo-1,4-dihydropyrido[3,4-d]pyrimidin-3(2H)-yl)pyridin-3-yl)propanoic acid], the pEC50 at α4β7 integrin (Table 1) was 9.10; on α4β1 integrin (Table 1), 7.41.

Regarding `Cn1c(=O)c(-c2ccc(C[C@H](NC(=O)c3c(F)cc(N4CCOC[C@@H]4C(F)(F)F)cc3F)C(=O)O)cc2)cc2cnccc21` [Example 35], the figures for the negative-log EC50 (pEC50) on α4β7 integrin (Table 2) and on α4β1 integrin (Table 2) were 8.96 and 7.47, respectively.

Consider `Cc1nc(-c2ccc(C[C@H](NC(=O)c3c(F)cc(N4CCOC[C@@H]4C(F)(F)F)cc3F)C(=O)O)cc2)c(=O)n(C)c1C` [Example 38], for which the results for the negative-log EC50 (pEC50) on α4β7 integrin (Table 2) and at α4β1 integrin (Table 2) were 8.31 and 7.06, respectively.

For the molecule `CC[C@@H](Nc1cc(C)c(C(=O)N[C@@H](Cc2ccc(-n3c(=O)c4ccncc4n(C)c3=O)nc2)C(=O)O)c(F)c1)C(F)(F)F` [Example 11, (S)-2-(2-fluoro-6-methyl-4-(((R)-1,1,1-trifluorobutan-2-yl)amino)benzamido)-3-(6-(1-methyl-2,4-dioxo-1,4-dihydropyrido[3,4-d]pyrimidin-3(2H)-yl)pyridin-3-yl)propanoic acid], the pEC50 was 9.30 at α4β7 integrin (Table 1) and 7.52 on α4β1 integrin (Table 1).

In the case of `Cc1cc(N2CCOC[C@@H]2C(F)(F)F)cc(F)c1C(=O)N[C@@H](Cc1ccc(-c2nc(C)c(C)n(C)c2=O)c(Cl)c1)C(=O)O` [Example 7, (S)-3-(3-chloro-4-(4,5,6-trimethyl-3-oxo-3,4-dihydropyrazin-2-yl)phenyl)-2-(2-fluoro-6-methyl-4-((R)-3-(trifluoromethyl)morpholino)benzamido)propanoic acid], the pEC50 on α4β7 integrin (Table 1) was 9.30; at α4β1 integrin (Table 1), 7.82.

With `Cn1c(=O)n(-c2c(F)cc(C[C@H](NC(=O)c3c(F)cc(N4CCOC[C@@H]4C(F)(F)F)cc3F)C(=O)O)cc2F)c(=O)c2ccncc21` [Example 82], the pEC50 at α4β7 integrin (Table 2) was 9.82; at α4β1 integrin (Table 2) it was 8.35.

Turning to `Cc1cc(N2CCOC[C@@H]2C(F)(F)F)cc(F)c1C(=O)N[C@@H](Cc1ccc(-n2c(=O)c3ccncc3n(C)c2=O)c(C(F)(F)F)c1)C(=O)O` (atropisomer, axis not shown) [Example 89], the pEC50 at α4β7 integrin (Table 2) was 9.22; at α4β1 integrin (Table 2) it was 8.64.

For the molecule `CC[C@@H](Nc1cc(F)c(C(=O)N[C@@H](Cc2ccc(-n3c(=O)c4ccncc4n(C)c3=O)nc2)C(=O)O)c(F)c1)C(F)(F)F` [Example 9, (S)-2-(2,6-difluoro-4-(((R)-1,1,1-trifluorobutan-2-yl)amino)benzamido)-3-(6-(1-methyl-2,4-dioxo-1,4-dihydropyrido[3,4-d]pyrimidin-3(2H)-yl)pyridin-3-yl)propanoic acid], the negative-log EC50 (pEC50) on α4β7 integrin (Table 1) was 8.80; at α4β1 integrin (Table 1), 6.93.

Regarding `CCOCc1cc(OC)c(-c2ccc(C[C@H](NC(=O)c3c(F)cc(N[C@H](c4ccccc4)C(F)(F)F)cc3F)C(=O)O)cc2)c(OC)c1` [Example 28], the pEC50 at α4β7 integrin (Table 2) was 8.14; on α4β1 integrin (Table 2), 7.15.

For `Cc1cc(N2CCOC[C@@H]2CC(F)F)cc(F)c1C(=O)N[C@@H](Cc1ccc(-n2c(=O)c3ccncc3n(C)c2=O)nc1)C(=O)O` [Example 69, (S)-2-(4-((S)-3-(2,2-difluoroethyl)morpholino)-2-fluoro-6-methylbenzamido)-3-(6-(1-methyl-2,4-dioxo-1,4-dihydropyrido[3,4-d]pyrimidin-3(2H)-yl)pyridin-3-yl)propanoic acid], the values for the pEC50 on α4β7 integrin (Table 1) and on α4β1 integrin (Table 1) were 9.70 and 7.68, respectively.

With `Cc1cc(N2CCOC[C@@H]2C(F)(F)F)cc(F)c1C(=O)N[C@@H](Cc1ccc(-n2c(=O)c3c(n(C)c2=O)CCC3)cc1)C(=O)O` [Example 64, (S)-2-(2-fluoro-6-methyl-4-((R)-3-(trifluoromethyl)morpholino)benzamido)-3-(4-(1-methyl-2,4-dioxo-1,2,4,5,6,7-hexahydro-3H-cyclopenta[d]pyrimidin-3-yl)phenyl)propanoic acid], the negative logarithm of the EC50 (pEC50) was 10.00 on α4β7 integrin (Table 1) and 8.74 at α4β1 integrin (Table 1).

`CC[C@@H](Nc1cc(F)c(C(=O)N[C@@H](Cc2ccc(-c3c(C)c4cc(F)ccc4n(C)c3=O)nc2)C(=O)O)c(F)c1)C(F)(F)F` [Example 44]: the figures for the pEC50 at α4β7 integrin (Table 2) and at α4β1 integrin (Table 2) were 8.54 and 7.42, respectively.

For the molecule `Cc1cc(N2CCOC[C@@H]2C(F)(F)F)cc(F)c1C(=O)N[C@@H](Cc1ccc(-n2c(=O)c3ccncc3n(C)c2=O)cc1)C(=O)O` [Example 25, (S)-2-(2-fluoro-6-methyl-4-((R)-3-(trifluoromethyl)morpholino)benzamido)-3-(4-(1-methyl-2,4-dioxo-1,4-dihydropyrido[3,4-d]pyrimidin-3(2H)-yl)phenyl)propanoic acid], the negative-log EC50 (pEC50) is 10.00 at α4β7 integrin (Table 1) and 8.47 on α4β1 integrin (Table 1).
